Test results reported in article PMC6985722 (Antimicrobial Agents and Chemotherapy, 2020).
Values joined by “and” are separate entries in the source; they are usually repeats but may differ in a detail not shown here. Equal values may be shown once.

Assay: RSV human challenge study: safety (adverse events, clinical and laboratory tests, ECG)
Assay type: in vivo
Conditions: for TEAE Abdominal discomfort / TEAE Abdominal distention / TEAE Abdominal pain (Table 4) / TEAE Abdominal pain (Table S4, listed apart from Abdominal pain lower) / TEAE Abdominal pain lower / TEAE Blood and lymphatic system disorders / TEAE Cardiac disorders / TEAE Catheter site erythema / TEAE Catheter site paraesthesia / TEAE Decreased appetite / TEAE Diarrhea / TEAE Dizziness / TEAE Epistaxis / TEAE Eye disorders / TEAE Eye pain / TEAE Food poisoning / TEAE Gastroenteritis / TEAE Gastrointestinal disorders / TEAE General disorders and administration site conditions / TEAE Headache / TEAE Hypoaesthesia / TEAE Infections and infestations / TEAE Injury, poisoning and procedural complications / TEAE Joint injury / TEAE Lip dry / TEAE Lymphadenopathy / TEAE Metabolism and nutrition disorders / TEAE Musculoskeletal and connective tissue disorders / TEAE Musculoskeletal pain / TEAE Myalgia / TEAE Myocarditis / TEAE Nausea / TEAE Nervous system disorders / TEAE Ocular hyperemia / TEAE Oropharyngeal pain / TEAE Pain in jaw / TEAE Pyrexia / TEAE Rash / TEAE Respiratory, thoracic and mediastinal disorders / TEAE Rhinitis / TEAE Skin abrasion / TEAE Skin and subcutaneous tissue disorders / TEAE Tension headache / TEAE Total / TEAE URTI / TEAE Vessel puncture site erythema / TEAE Viral URTI / TEAE Vomiting: safety analysis set
From the text: Twice-daily collection of nasal wash samples allowed measurement of viral load via RT-qPCR and quantitative culture. RT-qPCR results were reported as PFUe/ml when the standard curve included in each assay contained a known infectious amount (PFU) of RSV, as described previously ([30]). Subjects reported the occurrence and severity of symptoms three times daily using a 10-item subject symptom diary card as previously reported ([12]) (see Supplemental Methods). Throughout the quarantine period, used tissues were collected and weighed daily, and total nasal mucus weight was recorded. PK assessments were based on venous blood samples. Safety assessments included measurement of vital signs, standard 12-lead ECG recordings, spirometry, a complete physical examination, and a respiratory-directed physical examination. AEs were monitored daily, coded according to the Medical Dictionary for Regulatory Activities Version 20.0, and graded according to the National Cancer Institute Common Terminology Criteria for Adverse Events Version 4.0 (see Supplemental Methods for further details).
The primary efficacy analysis population (the ITT-I analysis set) comprised all randomized subjects who received challenge virus and at least one dose of study drug and met the criterion for laboratory-confirmed RSV infection (presence of detectable RSV). Sensitivity analyses were based on a subset of the ITT-I population who had first detectable RSV infection prior to study drug administration (the ITT-A analysis set) and a fixed time period of 6.5 days (comprising data for all subjects for 6.5 days of evaluation after the first dose, regardless of the staggered commencement of dosing). The safety analysis set comprised all subjects who received challenge virus; the PK analysis set comprised all subjects who received the challenge virus and provided at least one postdose PK result. […]
unexpected, in the opinion of the investigator, were captured as AEs. Following the viral challenge, upper and lower respiratory tract symptoms identified by the directed physical examination were expected, presumed to represent virus infection consequent to viral challenge and not captured as an AE unless they met the criteria for an AE and were deemed clinically significant in the opinion of the investigator. AEs were monitored daily from screening (day –2) through to the follow -up visit (day 28) and coded to system organ class and preferred term according to the Medical Dictionary for Regulatory Activities Version
20.0. AEs were graded according to the National Cancer Institute Common Terminology Criteria for Adverse Events Version 4.0, andthe relationship to the investigational medical product or to challenge virus was recorded. An AE with an onset date/time after […]
that were considered by the investigator to be causally related to challenge virus can be included in the analysis of AEs.
Outcomes. Safety outcomes included the occurrence of AEs. PK outcomes included the maximum plasma concentration, the minimum plasma concentration, the time to maximum plasma concentration, and the area under the plasma concentration-time curve with a dosing interval, calculated by the linear trapezoidal rule.

NCc1ccc2c(c1)nc(CN1C(=O)C3(CC3)c3ccc(F)cc31)n2CCCC(F)(F)F [RV521]
Grade 2 TEAEs, number of events (200 mg): 2 | Subjects with gastrointestinal TEAEs (200 mg): 32% | Subjects with grade 2 TEAEs (200 mg): 2 subjects | Treatment-emergent AEs, number of events (200 mg): 19 | Clinical or laboratory tests (vital signs, liver enzymes) vs placebo (200 mg and 350 mg): No notable differences | ECG findings (200 mg and 350 mg): no clinically significant ECG findings | TEAEs of grade ≥3 (200 mg and 350 mg): no TEAEs of grade ≥3 | TEAE Abdominal discomfort (200 mg): 0 number of subjects (%) | TEAE Abdominal distention (200 mg): 0 number of subjects (%) | TEAE Abdominal pain (Table 4) (200 mg): 2 (9) No. of subjects (%) | TEAE Abdominal pain (Table S4, listed apart from Abdominal pain lower) (200 mg): 2 (9) number of subjects (%) | TEAE Abdominal pain lower (200 mg): 0 number of subjects (%) | TEAE Blood and lymphatic system disorders (200 mg): 0 number of subjects (%) | TEAE Cardiac disorders (200 mg): 0 number of subjects (%) | TEAE Catheter site erythema (200 mg): 0 number of subjects (%) | TEAE Catheter site paraesthesia (200 mg): 1 (5) number of subjects (%) | TEAE Decreased appetite (200 mg): 1 (5) number of subjects (%) | TEAE Diarrhea (200 mg): 3 (14) No. of subjects (%) | TEAE Dizziness (200 mg): 1 (5) number of subjects (%) | TEAE Epistaxis (200 mg): 1 (5) number of subjects (%) | TEAE Eye disorders (200 mg): 0 number of subjects (%) | TEAE Eye pain (200 mg): 0 number of subjects (%) | TEAE Food poisoning (200 mg): 1 (5) number of subjects (%) | TEAE Gastroenteritis (200 mg): 0 number of subjects (%) | TEAE Gastrointestinal disorders (200 mg): 7 (32) number of subjects (%) | TEAE General disorders and administration site conditions (200 mg): 1 (5) number of subjects (%) | TEAE Headache (200 mg): 0 No. of subjects (%) | TEAE Hypoaesthesia (200 mg): 1 (5) number of subjects (%) | TEAE Infections and infestations (200 mg): 3 (14) number of subjects (%) | TEAE Injury, poisoning and procedural complications (200 mg): 1 (5) number of subjects (%) | TEAE Joint injury (200 mg): 0 number of subjects (%) | TEAE Lip dry (200 mg): 0 number of subjects (%) | TEAE Lymphadenopathy (200 mg): 0 number of subjects (%) | TEAE Metabolism and nutrition disorders (200 mg): 1 (5) number of subjects (%) | TEAE Musculoskeletal and connective tissue disorders (200 mg): 0 number of subjects (%) | TEAE Musculoskeletal pain (200 mg): 0 number of subjects (%) | TEAE Myalgia (200 mg): 0 number of subjects (%) | TEAE Myocarditis (200 mg): 0 number of subjects (%) | TEAE Nausea (200 mg): 2 (9) No. of subjects (%) | TEAE Nervous system disorders (200 mg): 2 (9) number of subjects (%) | TEAE Ocular hyperemia (200 mg): 0 number of subjects (%) | TEAE Oropharyngeal pain (200 mg): 0 number of subjects (%) | TEAE Pain in jaw (200 mg): 0 number of subjects (%) | TEAE Pyrexia (200 mg): 0 number of subjects (%) | TEAE Rash (200 mg): 0 No. of subjects (%) | TEAE Respiratory, thoracic and mediastinal disorders (200 mg): 1 (5) number of subjects (%) | TEAE Rhinitis (200 mg): 1 (5) No. of subjects (%) | TEAE Skin abrasion (200 mg): 1 (5) number of subjects (%) | TEAE Skin and subcutaneous tissue disorders (200 mg): 1 (5) number of subjects (%) | TEAE Tension headache (200 mg): 0 number of subjects (%) | TEAE Total (200 mg): 11 (50) number of subjects (%) and 11 number of subjects (%) | TEAE URTI (200 mg): 2 (9) No. of subjects (%) | TEAE Vessel puncture site erythema (200 mg): 0 number of subjects (%) | TEAE Viral URTI (200 mg): 0 No. of subjects (%) | TEAE Vomiting (200 mg): 1 (5) No. of subjects (%) | Grade 2 TEAEs, number of events (350 mg): 4 | Subjects with gastrointestinal TEAEs (350 mg): 59% | Subjects with grade 2 TEAEs (350 mg): 3 subjects | TEAE Abdominal discomfort (350 mg): 1 (5) number of subjects (%) | TEAE Abdominal distention (350 mg): 1 (5) number of subjects (%) | TEAE Abdominal pain (Table 4) (350 mg): 5 (23) No. of subjects (%) | TEAE Abdominal pain (Table S4, listed apart from Abdominal pain lower) (350 mg): 4 (18) number of subjects (%) | TEAE Abdominal pain lower (350 mg): 1 (5) number of subjects (%) | TEAE Blood and lymphatic system disorders (350 mg): 0 number of subjects (%) | TEAE Cardiac disorders (350 mg): 0 number of subjects (%) | TEAE Catheter site erythema (350 mg): 1 (5) number of subjects (%) | TEAE Catheter site paraesthesia (350 mg): 0 number of subjects (%) | TEAE Decreased appetite (350 mg): 0 number of subjects (%) | TEAE Diarrhea (350 mg): 9 (41) No. of subjects (%) | TEAE Dizziness (350 mg): 1 (5) number of subjects (%) | TEAE Epistaxis (350 mg): 0 number of subjects (%) | TEAE Eye disorders (350 mg): 0 number of subjects (%) | TEAE Eye pain (350 mg): 0 number of subjects (%) | TEAE Food poisoning (350 mg): 0 number of subjects (%) | TEAE Gastroenteritis (350 mg): 1 (5) number of subjects (%) | TEAE Gastrointestinal disorders (350 mg): 13 (59) number of subjects (%) | TEAE General disorders and administration site conditions (350 mg): 1 (5) number of subjects (%) | TEAE Headache (350 mg): 0 No. of subjects (%) | TEAE Hypoaesthesia (350 mg): 0 number of subjects (%) | TEAE Infections and infestations (350 mg): 5 (23) number of subjects (%) | TEAE Injury, poisoning and procedural complications (350 mg): 0 number of subjects (%) | TEAE Joint injury (350 mg): 0 number of subjects (%) | TEAE Lip dry (350 mg): 1 (5) number of subjects (%) | TEAE Lymphadenopathy (350 mg): 0 number of subjects (%) | TEAE Metabolism and nutrition disorders (350 mg): 0 number of subjects (%) | TEAE Musculoskeletal and connective tissue disorders (350 mg): 1 (5) number of subjects (%) | TEAE Musculoskeletal pain (350 mg): 0 number of subjects (%) | TEAE Myalgia (350 mg): 1 (5) number of subjects (%) | TEAE Myocarditis (350 mg): 0 number of subjects (%) | TEAE Nausea (350 mg): 12 (55) No. of subjects (%) | TEAE Nervous system disorders (350 mg): 1 (5) number of subjects (%) | TEAE Ocular hyperemia (350 mg): 0 number of subjects (%) | TEAE Oropharyngeal pain (350 mg): 0 number of subjects (%) | TEAE Pain in jaw (350 mg): 0 number of subjects (%) | TEAE Pyrexia (350 mg): 0 number of subjects (%) | TEAE Rash (350 mg): 0 No. of subjects (%) | TEAE Respiratory, thoracic and mediastinal disorders (350 mg): 0 number of subjects (%) | TEAE Rhinitis (350 mg): 2 (9) No. of subjects (%) | TEAE Skin abrasion (350 mg): 0 number of subjects (%) | TEAE Skin and subcutaneous tissue disorders (350 mg): 1 (5) number of subjects (%) | TEAE Tension headache (350 mg): 0 number of subjects (%) | TEAE Total (350 mg): 16 (73) number of subjects (%) | TEAE URTI (350 mg): 0 No. of subjects (%) | TEAE Vessel puncture site erythema (350 mg): 0 number of subjects (%) | TEAE Viral URTI (350 mg): 2 (9) No. of subjects (%) | TEAE Vomiting (350 mg): 2 (9) No. of subjects (%) | Treatment-related SAEs, deaths, or discontinuations due to AEs (any treatment group): No treatment-related serious adverse events (SAEs), deaths, or discontinuations due to AEs
